Experimental data: patent publication US7709471B2, “Compounds” (AstraZeneca AB, priority 2006, dated 2010)

Experiments:
[1] = target: recombinant Plk1 (Homo sapiens, UniProt P53350); assay: In Vitro Plk1 Enzyme Assay (SPA, GST-Cdc25C phosphorylation); format: biochemical; conditions: ATP 64 nM, 90 minutes, read-out: IC50 (Plk1 enzyme inhibition)
[2] = tested on: human colon tumour cell line HT29; assay: Cellular Assay (phosphohistone H3 Ser10 mitotic marker, HT29); format: cell-based; conditions: HT-29, 24 h, HT29 cells, read-out: IC50 (cellular assay, phosphohistone H3)

Chain of recombinant Plk1 (P53350 whole entry): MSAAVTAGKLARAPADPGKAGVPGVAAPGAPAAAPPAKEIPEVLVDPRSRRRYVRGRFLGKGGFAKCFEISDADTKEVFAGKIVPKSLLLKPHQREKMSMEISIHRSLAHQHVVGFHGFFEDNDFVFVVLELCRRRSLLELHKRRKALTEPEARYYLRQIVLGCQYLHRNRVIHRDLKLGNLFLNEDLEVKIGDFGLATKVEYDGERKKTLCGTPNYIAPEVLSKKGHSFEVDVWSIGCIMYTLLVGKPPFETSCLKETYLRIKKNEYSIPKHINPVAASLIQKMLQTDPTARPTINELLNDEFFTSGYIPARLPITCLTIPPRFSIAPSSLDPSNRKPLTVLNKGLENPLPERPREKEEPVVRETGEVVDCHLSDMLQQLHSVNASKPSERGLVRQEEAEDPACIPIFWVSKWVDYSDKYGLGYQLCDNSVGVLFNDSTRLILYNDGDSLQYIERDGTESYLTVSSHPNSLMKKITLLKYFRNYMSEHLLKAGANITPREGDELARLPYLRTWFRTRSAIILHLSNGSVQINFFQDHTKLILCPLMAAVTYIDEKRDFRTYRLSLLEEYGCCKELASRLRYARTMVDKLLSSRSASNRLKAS

IC50 [1] [nM] | IC50 [2] [nM] | Compound
< 100000 | < 1000 | COc1cc(C(=O)N[C@H]2CCN(C(=O)OC(C)(C)C)C2)ccc1Nc1ncc2c(n1)N(C1CCCC1)CCC(=O)N2C [Example 53, tert-butyl (3S)-3-[[4-[(6-cyclopentyl-2-methyl-3-oxo-2,6,8,10-tetrazabicyclo[5.4.0]undeca-8,10,12-trien-9-yl)amino]-3-methoxy-benzoyl]amino]pyrrolidine-1-carboxylate]
< 100000 | < 300 | COc1cc(C(=O)NC2CCN(C(=O)OCc3ccccc3)CC2)ccc1Nc1ncc2c(n1)N(C1CCCC1)CCC(=O)N2C [Example 54, Benzyl 4-[[4-[(6-cyclopentyl-2-methyl-3-oxo-2,6,8,10-tetrazabicyclo[5.4.0]undeca-8,10,12-trien-9-yl)amino]-3-methoxy-benzoyl]amino]piperidine-1-carboxylate]
< 300 | < 300 | COc1cc(C(=O)N[C@@H]2CCNC2)ccc1Nc1ncc2c(n1)N(C1CCCC1)CCC(=O)N2C [Example 55, 4-[(6-cyclopentyl-2-methyl-3-oxo-2,6,8,10-tetrazabicyclo[5.4.0]undeca-8,10,12-trien-9-yl)amino]-3-methoxy-N-[(3R)-pyrrolidin-3-yl]benzamide]
< 300 | < 1000 | COc1cc(C(=O)N[C@H]2CCNC2)ccc1Nc1ncc2c(n1)N(C1CCCC1)CCC(=O)N2C [Example 56, 4-[(6-cyclopentyl-2-methyl-3-oxo-2,6,8,10-tetrazabicyclo[5.4.0]undeca-8,10,12-trien-9-yl)amino]-3-methoxy-N-[(3S)-pyrrolidin-3-yl]benzamide]
< 300 | < 300 | COc1cc(C(=O)N[C@H]2[C@@H]3CNC[C@@H]32)ccc1Nc1ncc2c(n1)N(C1CCCC1)CCC(=O)N2C [Example 57, N-[(1S,5R)-3-azabicyclo[3.1.0]hex-6-yl]-4-[(6-cyclopentyl-2-methyl-3-oxo-2,6,8,10-tetrazabicyclo[5.4.0]undeca-8,10,12-trien-9-yl)amino]-3-methoxy-benzamide]
< 300 | < 300 | CCN(CC)C1CCC(NC(=O)c2ccc(Nc3ncc4c(n3)N(C3CCCC3)CCC(=O)N4C)c(OC)c2)CC1 (centres unmarked) [Example 58, 4-[(6-cyclopentyl-2-methyl-3-oxo-2,6,8,10-tetrazabicyclo[5.4.0]undeca-8,10,12-trien-9-yl)amino]-N-(4-diethylaminocyclohexyl)-3-methoxy-benzamide]
< 300 | < 300 | COc1cc(C(=O)NC2CCC(N(C)C)CC2)ccc1Nc1ncc2c(n1)N(C1CCCC1)CCC(=O)N2C (centres unmarked) [Example 60, 4-[(6-cyclopentyl-2-methyl-3-oxo-2,6,8,10-tetrazabicyclo[5.4.0]undeca-8,10,12-trien-9-yl)amino]-N-(4-dimethylaminocyclohexyl)-3-methoxy-benzamide]
< 300 | < 300 | CCN1CCC(NC(=O)c2ccc(Nc3ncc4c(n3)N(C3CCCC3)CCC(=O)N4C)c(OC)c2)CC1 [Example 61, 4-[(6-cyclopentyl-2-methyl-3-oxo-2,6,8,10-tetrazabicyclo[5.4.0]undeca-8,10,12-trien-9-yl)amino]-N-(1-ethyl-4-piperidyl)-3-methoxy-benzamide]
< 300 | < 300 | COc1cc(C(=O)N[C@@H]2CCN(C)C2)ccc1Nc1ncc2c(n1)N(C1CCCC1)CCC(=O)N2C [Example 62, 4-[(6-cyclopentyl-2-methyl-3-oxo-2,6,8,10-tetrazabicyclo[5.4.0]undeca-8,10,12-trien-9-yl)amino]-3-methoxy-N-[(3R)-1-methylpyrrolidin-3-yl]benzamide]
< 300 | < 300 | COc1cc(C(=O)N[C@H]2CCN(C)C2)ccc1Nc1ncc2c(n1)N(C1CCCC1)CCC(=O)N2C [Example 63, 4-[(6-cyclopentyl-2-methyl-3-oxo-2,6,8,10-tetrazabicyclo[5.4.0]undeca-8,10,12-trien-9-yl)amino]-3-methoxy-N-[(3S)-1-methylpyrrolidin-3-yl]benzamide]

Further lines, the molecule ahead of its results:

Compound | IC50 [1] [nM] | IC50 [2] [nM]
COc1cc(C(=O)NCCCNc2ccccn2)ccc1Nc1ncc2c(n1)N(C1CCCC1)CCC(=O)N2C [Example 38, 4-[(6-cyclopentyl-2-methyl-3-oxo-2,6,8,10-tetrazabicyclo[5.4.0]undeca-8,10,12-trien-9-yl)amino]-3-methoxy-N-[3-(pyridin-2-ylamino)propyl]benzamide] | < 1000 | < 300
COc1cc(C(=O)NCCCCN)ccc1Nc1ncc2c(n1)N(C1CCCC1)CCC(=O)N2C [Example 40, N-(4-aminobutyl)-4-[(6-cyclopentyl-2-methyl-3-oxo-2,6,8,10-tetrazabicyclo[5.4.0]undeca-8,10,12-trien-9-yl)amino]-3-methoxy-benzamide] | < 300 | < 30000
COc1cc(C(=O)NC2CCNCC2)ccc1Nc1ncc2c(n1)N(C1CCCC1)CCC(=O)N2C [Example 41, 4-[(6-cyclopentyl-2-methyl-3-oxo-2,6,8,10-tetrazabicyclo[5.4.0]undeca-8,10,12-trien-9-yl)amino]-3-methoxy-N-(4-piperidyl)benzamide] | < 300 | < 300
COc1cc(C(=O)NCCCN)ccc1Nc1ncc2c(n1)N(C1CCCC1)CCC(=O)N2C [Example 42, N-(3-aminopropyl)-4-[(6-cyclopentyl-2-methyl-3-oxo-2,6,8,10-tetrazabicyclo[5.4.0]undeca-8,10,12-trien-9-yl)amino]-3-methoxy-benzamide] | < 300 | < 30000
CNCCNC(=O)c1ccc(Nc2ncc3c(n2)N(C2CCCC2)CCC(=O)N3C)c(OC)c1 [Example 43, 4-[(6-cyclopentyl-2-methyl-3-oxo-2,6,8,10-tetrazabicyclo[5.4.0]undeca-8,10,12-trien-9-yl)amino]-3-methoxy-N-(2-methylaminoethyl)benzamide] | < 300 | < 300
CNCCCNC(=O)c1ccc(Nc2ncc3c(n2)N(C2CCCC2)CCC(=O)N3C)c(OC)c1 [Example 44, 4-[(6-cyclopentyl-2-methyl-3-oxo-2,6,8,10-tetrazabicyclo[5.4.0]undeca-8,10,12-trien-9-yl)amino]-3-methoxy-N-(3-methylaminopropyl)benzamide] | < 300 | < 300
COc1cc(C(=O)NC2CCNC2)ccc1Nc1ncc2c(n1)N(C1CCCC1)CCC(=O)N2C (centres unmarked) [Example 45, 4-[(6-cyclopentyl-2-methyl-3-oxo-2,6,8,10-tetrazabicyclo[5.4.0]undeca-8,10,12-trien-9-yl)amino]-3-methoxy-N-pyrrolidin-3-yl-benzamide] | < 300 | < 300
COc1cc(C(=O)NCC(C)(C)CN)ccc1Nc1ncc2c(n1)N(C1CCCC1)CCC(=O)N2C [Example 46, N-(3-amino-2,2-dimethyl-propyl)-4-[(6-cyclopentyl-2-methyl-3-oxo-2,6,8,10-tetrazabicyclo[5.4.0]undeca-8,10,12-trien-9-yl)amino]-3-methoxy-benzamide] | < 300 | < 300
COc1cc(C(=O)NC[C@@H]2CCNC2)ccc1Nc1ncc2c(n1)N(C1CCCC1)CCC(=O)N2C [Example 47, 4-[(6-cyclopentyl-2-methyl-3-oxo-2,6,8,10-tetrazabicyclo[5.4.0]undeca-8,10,12-trien-9-yl)amino]-3-methoxy-N-[[(3R)-pyrrolidin-3-yl]methyl]benzamide] | < 300 | < 1000
COc1cc(C(=O)NC2CCN(C)CC2)c(F)cc1Nc1ncc2c(n1)N(C1CCCC1)CCC(=O)N2C [Example 48, 4-[(6-cyclopentyl-2-methyl-3-oxo-2,6,8,10-tetrazabicyclo[5.4.0]undeca-8,10,12-trien-9-yl)amino]-2-fluoro-5-methoxy-N-(1-methyl-4-piperidyl)benzamide] | < 300 | < 300
COc1cc(C(=O)NC2CCN(C(C)C)CC2)ccc1Nc1ncc2c(n1)N(C1CCCC1)CCC(=O)N2C [Example 49, 4-[(6-cyclopentyl-2-methyl-3-oxo-2,6,8,10-tetrazabicyclo[5.4.0]undeca-8,10,12-trien-9-yl)amino]-3-methoxy-N-(1-propan-2-yl-4-piperidyl)benzamide] | < 300 | < 300
COc1cc(C(=O)NC2CCN(C(=O)OC(C)(C)C)CC2)ccc1Nc1ncc2c(n1)N(C1CCCC1)CCC(=O)N2C [Example 50, tert-butyl 4-[[4-[(6-cyclopentyl-2-methyl-3-oxo-2,6,8,10-tetrazabicyclo[5.4.0]undeca-8,10,12-trien-9-yl)amino]-3-methoxy-benzoyl]amino]piperidine-1-carboxylate] | < 100000 | < 300
COc1cc(C(=O)N[C@H]2[C@@H]3CN(C(=O)OCc4ccccc4)C[C@@H]32)ccc1Nc1ncc2c(n1)N(C1CCCC1)CCC(=O)N2C [Example 51, Benzyl(1S,5R)-6-[[4-[(6-cyclopentyl-2-methyl-3-oxo-2,6,8,10-tetrazabicyclo[5.4.0]undeca-8,10,12-trien-9-yl)amino]-3-methoxy-benzoyl]amino]-3-azabicyclo[3.1.0]hexane-3-carboxylate] | < 100000 | < 1000
COc1cc(C(=O)N[C@@H]2CCN(C(=O)OC(C)(C)C)C2)ccc1Nc1ncc2c(n1)N(C1CCCC1)CCC(=O)N2C [Example 52, tert-butyl (3R)-3-[[4-[(6-cyclopentyl-2-methyl-3-oxo-2,6,8,10-tetrazabicyclo[5.4.0]undeca-8,10,12-trien-9-yl)amino]-3-methoxy-benzoyl]amino]pyrrolidine-1-carboxylate] | < 1000 | < 300
COc1cc(C(=O)N[C@H]2C[C@H]3CCC[C@@H](C2)N3C)ccc1Nc1ncc2c(n1)N(C1CCCC1)CCC(=O)N2C [Example 59, 4-[(6-cyclopentyl-2-methyl-3-oxo-2,6,8,10-tetrazabicyclo[5.4.0]undeca-8,10,12-trien-9-yl)amino]-3-methoxy-N-[(1S,5R)-9-methyl-9-azabicyclo[3.3.1]non-7-yl]benzamide] | < 300 | < 300
